{"source": "patent US20030203373A1", "about": "(priority 2002, published 2003)", "target": "T1, ACE from pig kidney (Sus scrofa, UniProt F1RRW5)", "T1 construct": "1 mU ACE from pig kidney (EC 3.4.15.1 (Sigma)); purchased Sigma; host or cells: pig kidney (tissue-derived enzyme)", "T1 sequence (F1RRW5 34-1309)": "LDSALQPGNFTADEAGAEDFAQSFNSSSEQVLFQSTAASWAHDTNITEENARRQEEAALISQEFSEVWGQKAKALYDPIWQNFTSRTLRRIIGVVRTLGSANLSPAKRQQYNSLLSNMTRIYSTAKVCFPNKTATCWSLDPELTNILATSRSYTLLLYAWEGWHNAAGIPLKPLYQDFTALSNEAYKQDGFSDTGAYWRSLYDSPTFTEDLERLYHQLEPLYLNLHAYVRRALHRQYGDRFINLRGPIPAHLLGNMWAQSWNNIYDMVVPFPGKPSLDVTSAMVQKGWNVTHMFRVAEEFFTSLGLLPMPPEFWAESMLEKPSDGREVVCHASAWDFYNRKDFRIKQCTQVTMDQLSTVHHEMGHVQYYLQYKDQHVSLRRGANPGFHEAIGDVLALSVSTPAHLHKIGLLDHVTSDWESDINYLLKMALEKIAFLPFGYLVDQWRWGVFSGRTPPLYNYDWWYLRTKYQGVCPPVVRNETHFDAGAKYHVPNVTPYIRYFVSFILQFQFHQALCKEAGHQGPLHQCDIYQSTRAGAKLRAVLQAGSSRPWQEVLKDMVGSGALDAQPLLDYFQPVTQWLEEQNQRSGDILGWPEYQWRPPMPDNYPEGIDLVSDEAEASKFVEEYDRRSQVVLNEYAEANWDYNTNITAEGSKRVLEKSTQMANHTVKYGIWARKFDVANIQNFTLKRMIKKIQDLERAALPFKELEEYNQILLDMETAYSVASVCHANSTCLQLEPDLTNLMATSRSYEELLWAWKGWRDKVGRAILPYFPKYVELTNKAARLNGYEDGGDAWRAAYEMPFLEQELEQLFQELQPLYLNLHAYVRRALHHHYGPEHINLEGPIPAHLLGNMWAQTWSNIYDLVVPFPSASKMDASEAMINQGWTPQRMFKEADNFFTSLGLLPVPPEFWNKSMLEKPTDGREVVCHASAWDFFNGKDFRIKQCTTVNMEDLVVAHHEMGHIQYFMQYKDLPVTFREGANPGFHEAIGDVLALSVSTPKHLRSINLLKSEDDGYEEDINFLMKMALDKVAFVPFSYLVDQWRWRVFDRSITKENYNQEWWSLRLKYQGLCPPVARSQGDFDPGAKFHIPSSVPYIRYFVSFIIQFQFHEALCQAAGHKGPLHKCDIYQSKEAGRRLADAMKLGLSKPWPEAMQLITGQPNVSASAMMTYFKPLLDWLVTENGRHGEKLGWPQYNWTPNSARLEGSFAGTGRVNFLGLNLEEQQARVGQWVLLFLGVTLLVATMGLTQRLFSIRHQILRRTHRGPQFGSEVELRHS", "assay": "biochemical", "assay_type": "biochemical", "summary_of_the_method": "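Pig kidney ACE (1 mU) in 25 mM HEPES, 0,3 M NaCl, pH 8,2 was mixed with inhibitor solutions (0,35-200 μM) and started with 2 mM hippuryl-histidyl-leucine solution. After 30 min at 22° C the reaction was stopped with NaOH and the product derivatized with ortho-phthalaldehyde for fluorescence. IC50 was read graphically from % inhibition curves.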", "key": {"[1]": {"details": "inhibitor 0.78125 μM, replicates A-D"}, "[2]": {"details": "inhibitor 1.5625 μM, replicates A-D"}, "[3]": {"details": "inhibitor 3.125 μM, replicates A-D"}, "[4]": {"details": "inhibitor 6.25 μM, replicates A-D"}, "[5]": {"details": "inhibitor 12.5 μM, replicates A-D"}, "[6]": {"details": "inhibitor 25 μM, replicates A-D"}, "[7]": {"details": "inhibitor 50 μM, replicates A-D"}, "[8]": {"details": "inhibitor 100 μM, replicates A-D"}, "[9]": {"details": "inhibitor 200 μM, replicates A-D"}}, "note": "Values joined by “and” are separate entries in the source; they are usually repeats but may differ in a detail not shown here. Equal entries are not always repeated."}
{"smiles": "CC(C)C[C@H](NC(=O)[C@H](C)N)C(=O)N[C@@H](CO)C(=O)N1CCC[C@H]1C(=O)N[C@@H](CC(C)C)C(=O)N1CCC[C@H]1C(=O)N[C@@H](CCC(=O)O)C(=O)N[C@H](C(=O)N1CCC[C@H]1C(=O)N1CCC[C@H]1C(=O)O)C(C)C", "note": "[Peptide S545]", "values": [{"measurement": "IC50", "setting": "ACE from pig kidney, determined graphically, read-out: IC50-value (ACE inhibition)", "value": 2.4, "unit": "µM"}, {"measurement": "fluorescence reading (ACE Inhibitor Assay)", "setting": "inhibitor 0.39 μM, replicates A-D", "value": "811412 and 841911 and 876502 and 774338"}, {"measurement": "% inhibition (ACE Inhibitor Assay)", "setting": "inhibitor 0.39 μM, replicates A-D, 0.39 µM", "value": "12.66% and 9.36% and 5.61% and 16.67%"}, {"measurement": "fluorescence reading (ACE Inhibitor Assay)", "setting": "[1]", "value": "726277 and 720995 and 719037 and 692816"}, {"measurement": "inhibition at 0.78125 µM", "setting": "[1]", "value": 21.9, "unit": "%"}, {"measurement": "% inhibition (ACE Inhibitor Assay)", "setting": "inhibitor 0.78125 μM, replicates A-D, 0.78125 µM", "value": "22.45% and 22.66% and 25.5%"}, {"measurement": "fluorescence reading (ACE Inhibitor Assay)", "setting": "[2]", "value": "541353 and 551184 and 577933 and 551569"}, {"measurement": "inhibition at 1.5625 µM", "setting": "[2]", "value": 41.9, "unit": "%"}, {"measurement": "% inhibition (ACE Inhibitor Assay)", "setting": "inhibitor 1.5625 μM, replicates A-D, 1.5625 µM", "value": "40.85% and 37.95% and 40.8%"}, {"measurement": "fluorescence reading (ACE Inhibitor Assay)", "setting": "[3]", "value": "405396 and 408086 and 447790 and 392263"}, {"measurement": "inhibition at 3.125 µM", "setting": "[3]", "value": 56.6, "unit": "%"}, {"measurement": "% inhibition (ACE Inhibitor Assay)", "setting": "inhibitor 3.125 μM, replicates A-D, 3.125 µM", "value": "56.36% and 52.05% and 58.06%"}, {"measurement": "fluorescence reading (ACE Inhibitor Assay)", "setting": "[4]", "value": "251538 and 279216 and 263340 and 250076"}, {"measurement": "inhibition at 6.25 µM", "setting": "[4]", "value": 73.3, "unit": "%"}, {"measurement": "% inhibition (ACE Inhibitor Assay)", "setting": "inhibitor 6.25 μM, replicates A-D, 6.25 µM", "value": "70.3% and 72.02% and 73.46%"}, {"measurement": "fluorescence reading (ACE Inhibitor Assay)", "setting": "[5]", "value": "174037 and 177324 and 175378 and 177772"}, {"measurement": "inhibition at 12.5 µM", "setting": "[5]", "value": 81.7, "unit": "%"}, {"measurement": "% inhibition (ACE Inhibitor Assay)", "setting": "inhibitor 12.5 μM, replicates A-D, 12.5 µM", "value": "81.34% and 81.55% and 81.29%"}, {"measurement": "fluorescence reading (ACE Inhibitor Assay)", "setting": "[6]", "value": "108586 and 113328 and 113458 and 104078"}, {"measurement": "inhibition at 25 µM", "setting": "[6]", "value": 88.8, "unit": "%"}, {"measurement": "% inhibition (ACE Inhibitor Assay)", "setting": "inhibitor 25 μM, replicates A-D, 25 µM", "value": "88.27% and 88.26% and 89.27%"}, {"measurement": "fluorescence reading (ACE Inhibitor Assay)", "setting": "[7]", "value": "53158 and 63009 and 54447 and 48696"}, {"measurement": "inhibition at 50 µM", "setting": "[7]", "value": 94.8, "unit": "%"}, {"measurement": "% inhibition (ACE Inhibitor Assay)", "setting": "inhibitor 50 μM, replicates A-D, 50 µM", "value": "93.72% and 94.65% and 95.27%"}, {"measurement": "fluorescence reading (ACE Inhibitor Assay)", "setting": "[8]", "value": "28035 and 29130 and 30237 and 28568"}, {"measurement": "inhibition at 100 µM", "setting": "[8]", "value": 97.5, "unit": "%"}, {"measurement": "% inhibition (ACE Inhibitor Assay)", "setting": "inhibitor 100 μM, replicates A-D, 100 µM", "value": "97.39% and 97.27% and 97.45%"}, {"measurement": "fluorescence reading (ACE Inhibitor Assay)", "setting": "[9]", "value": "17677 and 17238 and 18084 and 18937"}, {"measurement": "inhibition at 200 µM", "setting": "[9]", "value": 98.6, "unit": "%"}, {"measurement": "% inhibition (ACE Inhibitor Assay)", "setting": "inhibitor 200 μM, replicates A-D, 200 µM", "value": "98.68% and 98.59% and 98.5%"}, {"measurement": "fold higher dose necessary in the ACE-assay to reach the same effect as with Captopril", "setting": "relative to Captopril", "value": 1000, "unit": "fold"}]}
